According to US20250296929A1, “NOVEL HEPATOSELECTIVE POLYADENYLATING POLYMERASES INHIBITORS AND THEIR METHOD OF USE” (BARUCH S. BLUMBERG INSTITUTE, priority 2021, published 2025):

How the values were obtained:
OATP1B3 = target: T1, OATP1B3 (Homo sapiens, UniProt Q9NPD5); assay: OATP1B3 transporter substrate uptake in OATP1B3-HEK293 cells; assay type: in vitro ADME; conditions: for Uptake Ratio (−/+Inhibitor): OATP1B3-HEK293 cells, inhibitor Rifamycin SV; for Uptake Ratio (Transporter(−Inhibitor)/Mock(−Inhibitor)): OATP1B3-HEK293 vs Mock
T1 construct: expressed in transfected cells; host or cells: HEK293
T1 sequence (Q9NPD5 1-702): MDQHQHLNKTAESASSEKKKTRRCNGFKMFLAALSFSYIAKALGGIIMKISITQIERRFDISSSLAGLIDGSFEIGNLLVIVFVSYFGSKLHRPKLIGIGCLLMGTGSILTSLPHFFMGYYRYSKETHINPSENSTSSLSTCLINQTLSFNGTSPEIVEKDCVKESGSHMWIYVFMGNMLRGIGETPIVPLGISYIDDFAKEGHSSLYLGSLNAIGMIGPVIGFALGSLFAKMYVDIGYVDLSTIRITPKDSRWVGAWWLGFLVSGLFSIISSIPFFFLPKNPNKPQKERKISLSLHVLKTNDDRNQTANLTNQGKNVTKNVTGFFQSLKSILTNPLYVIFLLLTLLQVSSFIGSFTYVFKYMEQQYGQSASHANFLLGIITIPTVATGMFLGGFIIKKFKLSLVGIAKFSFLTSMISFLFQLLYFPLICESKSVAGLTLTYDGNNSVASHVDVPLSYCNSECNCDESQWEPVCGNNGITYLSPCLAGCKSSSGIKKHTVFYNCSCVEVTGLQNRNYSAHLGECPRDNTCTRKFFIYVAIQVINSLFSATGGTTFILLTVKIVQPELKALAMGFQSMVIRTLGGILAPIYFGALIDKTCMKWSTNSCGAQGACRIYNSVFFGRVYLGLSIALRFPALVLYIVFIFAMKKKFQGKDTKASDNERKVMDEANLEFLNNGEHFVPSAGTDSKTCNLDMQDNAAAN
Method: Protocol for identification of compounds that are substrates of transporters OATP1B1 and OATP1B3. Transfected HTEK293 and vector control HTEK293 cells were cultured in 24-well poly-D-lysine or collagen-coated tissue culture plates ([…]) for 2 and 10 minutes respectively in transport buffer (HIBSSg, pH 7.4, pre-warmed to 37° C.). At a defined time point, the uptake experiments were stopped by removing dosing solution followed by two washes of ice-cold HIBSSg buffer. The cells were lysed for 2 minutes with […] containing an appropriate internal standard (when available). Lysis buffer were chilled to −20° C., and the plate was kept on ice during lysis. The cell lysate was transferred into a 96-well plate for sample analysis with LC-MS/MS analysis to determine concentration of test compound in cell lysate. The uptake of test compounds was normalized by total cell protein using the BCA Protein Assay Kit following the manufacturer's protocol. The inhibitor Rifamycin SV was used to block OATP1B1 and OATP1B3 transporter activity in order to determine uptake ratios.

OATP1B1 = target: T2, OATP1B1 (Homo sapiens, UniProt Q9Y6L6); assay: OATP1B1 transporter substrate uptake in OATP1B1-HEK293 cells; assay type: in vitro ADME; conditions: for Uptake Ratio (−/+Inhibitor): OATP1B1-HEK293 cells, inhibitor Rifamycin SV; for Uptake Ratio (Transporter(−Inhibitor)/Mock(−Inhibitor)): OATP1B1-HEK293 vs Mock (normal HEK293)
T2 construct: expressed in transfected cells; host or cells: HEK293
T2 sequence (Q9Y6L6 1-691): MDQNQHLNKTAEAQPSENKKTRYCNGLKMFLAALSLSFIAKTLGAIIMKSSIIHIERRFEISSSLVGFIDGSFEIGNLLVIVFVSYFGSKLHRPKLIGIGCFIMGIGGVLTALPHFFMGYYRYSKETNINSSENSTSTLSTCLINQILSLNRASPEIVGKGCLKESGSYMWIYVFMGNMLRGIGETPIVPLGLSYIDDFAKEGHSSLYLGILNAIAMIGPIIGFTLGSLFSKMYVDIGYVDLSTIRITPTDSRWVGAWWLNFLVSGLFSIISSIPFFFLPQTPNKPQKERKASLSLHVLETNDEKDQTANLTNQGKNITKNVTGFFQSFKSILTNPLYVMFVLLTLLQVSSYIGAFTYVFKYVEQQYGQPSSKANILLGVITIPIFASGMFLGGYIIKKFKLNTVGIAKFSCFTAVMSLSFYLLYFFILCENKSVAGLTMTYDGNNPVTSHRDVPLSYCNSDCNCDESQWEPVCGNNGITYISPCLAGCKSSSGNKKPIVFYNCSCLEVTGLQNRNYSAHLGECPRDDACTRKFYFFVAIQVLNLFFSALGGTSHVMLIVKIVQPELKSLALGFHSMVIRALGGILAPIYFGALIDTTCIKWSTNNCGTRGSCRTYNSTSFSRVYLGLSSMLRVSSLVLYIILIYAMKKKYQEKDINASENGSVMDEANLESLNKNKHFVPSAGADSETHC

[1] = tested on: woodchuck hepatitis virus (WHV); conditions: oral administration, woodchucks chronically infected with WHV; cited from earlier work
[2] = in words; cited from earlier work
HBV = conditions: oral treatment, HBV infected uPA-SCID mice harboring human hepatocytes; cited from earlier work
[3] = Cellular toxicity (CellTiter-Glo) in HepG2.2.15 cells; assay type: cell-based; conditions: human
Method: (§1) Cellular assays method 1: Cellular assays: The HBV producing cell line HepG2.2.15 was cultured in DMEM/F12 containing 10% fetal bovine serum (FBS), 100 U/ml penicillin and 100 μg/ml streptomycin (Invitrogen). Compounds of the disclosure in DMSO was added into the culture medium when cell reached 100% confluence. The final concentration of DMSO was adjusted to 0.5%. Culture medium was replaced in two days and the cell was cultured for additional two days in the presence of compound. HBsAg inhibition in culture medium was then detected with AlphaLisa assay using anti-HBsAg antibodies of 10-H05H and 60C-CR2100RB from Fitzgerald Internantional. To examine the change of nucleic acid, total RNA was extracted with Trizol reagents and resolved in glyoxal agarose gel. HBV RNA blotted onto nitrocellulose membrane was measured with P32 labeled ribo-probe. Reduction and shortening of viral RNA indicates on target effect of the tested compound. […] HepG2.2.15 cells were first seeded in 96-well plate (Corning, Cat #: CLS3595) at density of 10,000 cells/well in 100 ul DMEM/F12 medium containing 10% FBS. When cells reached 100% confluence, treatment with compounds of the disclosure was initiated, and cells were cultured in the way as described for HBsAg inhibition study. Four days post drug treatment, 100 ul of CellTiter-Glo reagents (Promega, Cat #G7570) were added into each well and the mixture was incubated at 23° C. for 12 minutes, followed by the reading of luminescent signal in Tecan's Infinite 200 PRO. Compound IC50 on HBsAg and CC50 on cell viability were calculated using Graphpad prism. The IC50 and CC50 are defined as the compound concentration (or conditioned media log dilution) at which HBsAg secretion and cytotoxicity, respectively, are reduced by 50% compared to the no drug control.
(§2) Cellular assays method 2: HepG2.2.15 cells were seeded in duplicate into white, 96-well plates at 1.5×10^4 cells/well. The cells were treated with a 3-fold serial dilution series of the compounds in DMSO. The final DMSO concentration in all wells was 1%, and DMSO was used as no drug control. The HBsAg chemiluminescence immunoassay (CLIA) kit (Autobio Diagnostics Co., Zhengzhou, China) was used to measure the levels of secreted HBV antigens semi-quantitatively. For the detection, 50 μL/well culture supernatant was used and the procedure conducted as directed by manufacturer's instructions. The cytotoxicity was measured using CellTiter-Glo (Promega, Madison, WI, USA, catalogue no. G7571). Dose-response curves were generated and the IC50 and CC50 values were calculated using Graphpad prism. The IC50 and CC50 are defined as the compound concentration (or conditioned media log dilution) at which HBsAg secrection and cytotoxicity, respectively, are reduced by 50% compared to the no drug control.

[4] = tested on: HBsAg secretion, HBV producing cell line HepG2.2.15; assay: Cellular assay: HBsAg inhibition in HBV producing cell line HepG2.2.15; assay type: cell-based; conditions: Hepatitis B virus
Method: as §1, §2

Row | SMILES | CC50 [3] | EC50 [4] | other results
1 | C[C@]12CC[C@@H]3c4ccc(O)cc4CC[C@H]3[C@@H]1CC[C@@H]2O[C@@H]1O[C@H](C(=O)O)[C@@H](O)[C@H](O)[C@H]1O [Estradiol 17-β Glucuronide] |  |  | Uptake Ratio (−/+Inhibitor) (OATP1B3; test concentration 10 μM): 86.15; Uptake Ratio (Transporter(−Inhibitor)/Mock(−Inhibitor)) (OATP1B3; test concentration 10 μM): 98.86; Uptake Ratio (−/+Inhibitor) (OATP1B1; test concentration 10 μM): 81.84; Uptake Ratio (Transporter(−Inhibitor)/Mock(−Inhibitor)) (OATP1B1; test concentration 10 μM): 48.70
2 | COCCCOc1cc2c(cc1OC)-c1cc(=O)c(C(=O)O)cn1[C@H](C(C)C)C2 [DHQ-1] |  |  | Uptake Ratio (−/+Inhibitor) (OATP1B3; test concentration 1 μM): 0.42; Uptake Ratio (Transporter(−Inhibitor)/Mock(−Inhibitor)) (OATP1B3; test concentration 1 μM): 0.56; Reduction of WHV and surface protein in the blood [1]: multi-log reductions; Toxicity observed [2]: acute neurotoxicity liabilities; Reduction of HBsAg in the circulation (HBV): 1 log; Uptake Ratio (−/+Inhibitor) (OATP1B1; test concentration 1 μM): 0.38; Uptake Ratio (Transporter(−Inhibitor)/Mock(−Inhibitor)) (OATP1B1; test concentration 1 μM): 0.71
3 | COc1cc2c(cc1OCC(=O)O)C[C@@H](C(C)C)n1cc(C(=O)O)c(=O)cc1-2 [Example 1, (S)-9-(carboxymethoxy)-6-isopropyl-10-methoxy-2-oxo-6,7-dihydro-2H-pyrido [2,1-a]isoquinoline-3-carboxylic acid] | > 10000 nM | 10000 nM | 
4 | COc1cc2c(cc1OCCCCCCCC(=O)O)C[C@@H](C(C)C)n1cc(C(=O)O)c(=O)cc1-2 [Example 7, (S)-9-((7-carboxyheptyl)oxy)-6-isopropyl-10-methoxy-2-oxo-6,7-dihydro-2H-pyrido[2,1-a]isoquinoline-3-carboxylic acid] | > 10000 nM | 7.6 nM | 
5 | COc1cc2c(cc1OCCCOCC(=O)O)C[C@@H](C(C)C)n1cc(C(=O)O)c(=O)cc1-2 [Example 5, (S)-9-(3-(carboxymethoxy)propoxy)-6-isopropyl-10-methoxy-2-oxo-6,7-dihydro-2H-pyrido[2,1-a]isoquinoline-3-carboxylic acid] | > 10000 nM | 2780 nM | 
6 | COc1cc2c(cc1OCCCCCC(=O)O)C[C@@H](C(C)C)n1cc(C(=O)O)c(=O)cc1-2 [Example 4, (S)-9-((5-carboxypentyl)oxy)-6-isopropyl-10-methoxy-2-oxo-6,7-dihydro-2H-pyrido[2,1-a]isoquinoline-3-carboxylic acid] | > 10000 nM | 87 nM | 
7 | COc1cc2c(cc1OCCCCCCCCC(=O)O)C[C@@H](C(C)C)n1cc(C(=O)O)c(=O)cc1-2 [Example 8, (S)-9-((8-carboxyoctyl)oxy)-6-isopropyl-10-methoxy-2-oxo-6,7-dihydro-2H-pyrido[2,1-a]isoquinoline-3-carboxylic acid] | > 10000 nM | 4.6 nM | 
8 | COc1cc2c(cc1OCCCCC(=O)O)C[C@@H](C(C)C)n1cc(C(=O)O)c(=O)cc1-2 [Example 3, (S)-9-(4-carboxybutoxy)-6-isopropyl-10-methoxy-2-oxo-6,7-dihydro-2H-pyrido[2,1-a]isoquinoline-3-carboxylic acid] | > 10000 nM | 380 nM | 
9 | COc1cc2c(cc1OCCCC(=O)O)C[C@@H](C(C)C)n1cc(C(=O)O)c(=O)cc1-2 [Example 2, (S)-9-(3-carboxypropoxy)-6-isopropyl-10-methoxy-2-oxo-6,7-dihydro-2H-pyrido [2,1-a]isoquinoline-3-carboxylic acid] | > 10000 nM | 1010 nM | 
